For data set [1] the following is noted: ~4 months at ambient conditions.
A short description of data set [2]: potassium laurate solubility in various solvents (solvent added dropwise under sonication). Conditions: thermodynamic from solid. The data set is classed as physicochemical. The procedure: In order to select the reaction solvents and their optimized volumes, the solubility of potassium laurate in various solvents was checked by adding solvent to dissolve the solids under sonication. A vial was charged with potassium laurate (˜100 mg) and then solvent was added dropwise under sonication. The potassium laurate could not be dissolved with most solvents (200 vol.).

Results on three compounds are retold here after patent publication US10519109B2, “Glycopyrronium fatty acid salts and methods of making same” (QAAM PHARMACEUTICALS, LLC, priority 2015, dated 2019).

Where “and” joins values, the source holds several entries; their conditions need not be identical. Equal entries are not always repeated. Where two headings read alike, the source gives them in different places.

Usually solubility stands for the concentration that dissolves in the medium under given conditions.

In the case of `C[N+]1(C)CCC(OC(=O)C(O)(c2ccccc2)C2CCCC2)C1` (centres unmarked) [glycopyrronium stearate], the degradation over time entry in data set [1] is on record as “degradation was observed”.

As to `C[N+]1(C)CCC(OC(=O)C(O)(c2ccccc2)C2CCCC2)C1` (centres unmarked) [glycopyrronium laurate], the “HPLC Results Glycopyrronium” value reads like this: (Expt. 1A: Me-THF Solution at RT over weekend) 87.72 AUC % and 87.72% AUC %; (Expt. 1B: Me-THF Solution at 50° C. over weekend, Bottom layer) 49.47% AUC %; (Expt. 1B: Me-THF Solution at 50° C. over weekend, Top layer) 57 AUC % and 57.13% AUC %; (Expt. 2A: Me-THF Solution in the presence of Lauric Acid at RT over weekend) 89.44% AUC %; (Expt. 2B: Me-THF Solution in the presence of Lauric Acid at 50° C. over weekend, Bottom layer) 65.60% AUC %; (Expt. 2B: Me-THF Solution in the presence of Lauric Acid at 50° C. over weekend, Top layer) 69.58% AUC %.

As to `CCCCCCCCCCCC(=O)[O-].[K+]` [potassium laurate], the solubility in data set [2] (organic solvent or mixture, Acetone, 50° C.) was below 5000 µg/mL; in data set [2] (organic solvent or mixture, Acetone, room temperature, read-out: potassium laurate solubility At Room Temperature), below 5000 µg/mL; in data set [2] (organic solvent or mixture, Butyl Acetate, 50° C.), below 5000 µg/mL; in data set [2] (organic solvent or mixture, Butyl Acetate, room temperature, read-out: potassium laurate solubility At Room Temperature), below 5000 µg/mL; in data set [2] (organic solvent or mixture, Ethanol, room temperature, read-out: potassium laurate solubility At Room Temperature) it was around 14000 µg/mL; in data set [2] (organic solvent or mixture, Ethyl Acetate, 50° C.), below 5000 µg/mL. The solubility is below 5000 µg/mL in data set [2] (organic solvent or mixture, Ethyl Acetate, room temperature, read-out: potassium laurate solubility At Room Temperature); below 5000 µg/mL in data set [2] (organic solvent or mixture, IPA, 50° C.); below 5000 µg/mL in data set [2] (organic solvent or mixture, IPA, room temperature, read-out: potassium laurate solubility At Room Temperature); below 5000 µg/mL in data set [2] (organic solvent or mixture, Isopropyl Acetate, 50° C.); below 5000 µg/mL in data set [2] (organic solvent or mixture, Isopropyl Acetate, room temperature, read-out: potassium laurate solubility At Room Temperature); below 5000 µg/mL in data set [2] (organic solvent or mixture, MEK, 50° C.). Also, the solubility in data set [2] (organic solvent or mixture, MEK, room temperature, read-out: potassium laurate solubility At Room Temperature) was below 5000 µg/mL; in data set [2] (organic solvent or mixture, MIBK, 50° C.) it was below 5000 µg/mL; in data set [2] (organic solvent or mixture, MIBK, room temperature, read-out: potassium laurate solubility At Room Temperature) it was below 5000 µg/mL; in data set [2] (organic solvent or mixture, Methanol, room temperature, read-out: potassium laurate solubility At Room Temperature), around 50000 µg/mL; in data set [2] (organic solvent or mixture, Methyl Acetate, 50° C.), below 5000 µg/mL; in data set [2] (organic solvent or mixture, Methyl Acetate, room temperature, read-out: potassium laurate solubility At Room Temperature) it was below 5000 µg/mL. For the same compound, the solubility in data set [2] (Water, room temperature, read-out: potassium laurate solubility At Room Temperature) was around 138000 µg/mL.
